Reference: PubChem BioAssay AID248 (DTP/NCI, 2004)
Where “and” joins values, the source holds several entries; their conditions need not be identical. Equal values may be shown once. Toxic doses and inconclusive results are not listed.

System: L1210 leukemia ip in BDF1 mice, survival T/C
Experiment: NCI In Vivo Anticancer Drug Screen. Data for tumor model L1210 Leukemia (intraperitoneal) in B6D2F1 (BDF1) mice
Settings: higher = longer survival
Summary of the method: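 Read-out is survival time, reported as the treated-group measurement over the vehicle-control measurement.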

[1] = endpoint: mean survival time, dose: 100.0 mg/kg/injection, schedule: Q01DX009 (ip), vehicle: Klucel (hydroxypropylcellulose) (HPC)
[2] = endpoint: mean survival time, dose: 200.0 mg/kg/injection, schedule: Q01DX009 (ip), vehicle: Klucel (hydroxypropylcellulose) (HPC)

For `NC(=O)N(CCCl)N=O`, the T/C (endpoint: mean survival time, dose: 0.06 mg/kg/injection, schedule: Q#A X Z (oral), vehicle: saline) was 123 % of control, the T/C (endpoint: mean survival time, dose: 0.12 mg/kg/injection, schedule: Q01DX010 (iv), vehicle: saline) was 98 % of control and the T/C (endpoint: mean survival time, dose: 0.13 mg/kg/injection, schedule: Q01DX Z (oral), vehicle: saline) was 118 % of control. For the same compound, the T/C (endpoint: mean survival time, dose: 0.19 mg/kg/injection, schedule: Q03DX Z (oral), vehicle: saline) was 112 % of control, the T/C (endpoint: mean survival time, dose: 0.2 mg/kg/injection, schedule: Q01DX Z (sc), vehicle: methylcellulose (MC)) was 101 % of control and the T/C (endpoint: mean survival time, dose: 0.25 mg/kg/injection, schedule: Q01DX010 (iv), vehicle: saline) was 118 % of control. For the same compound, the T/C (endpoint: mean survival time, dose: 0.25 mg/kg/injection, schedule: Q01DX Z (oral), vehicle: saline) was 182 % of control, the T/C (endpoint: mean survival time, dose: 0.25 mg/kg/injection, schedule: Q#A X Z (oral), vehicle: saline) was 255 % of control and the T/C (endpoint: mean survival time, dose: 0.38 mg/kg/injection, schedule: Q03DX Z (oral), vehicle: saline) was 121 % of control. For the same compound, the T/C (endpoint: mean survival time, dose: 0.4 mg/kg/injection, schedule: Q01DX Z (ip), vehicle: carboxymethylcellulose (CMC)) was 157 % of control and 201 % of control, the T/C (endpoint: mean survival time, dose: 0.4 mg/kg/injection, schedule: Q01DX Z (ip), vehicle: methylcellulose (MC)) was 151 % of control and the T/C (endpoint: mean survival time, dose: 0.4 mg/kg/injection, schedule: Q01DX Z (sc), vehicle: methylcellulose (MC)) was 98 % of control and 101 % of control. For the same compound, the T/C (endpoint: mean survival time, dose: 0.44 mg/kg/injection, schedule: Q07DX Z (oral), vehicle: saline) was 105 % of control, the T/C (endpoint: mean survival time, dose: 0.5 mg/kg/injection, schedule: Q01DX009 (ip), vehicle: saline) was 159 % of control and 163 % of control and 176 % of control and the T/C (endpoint: mean survival time, dose: 0.5 mg/kg/injection, schedule: Q01DX Z (oral), vehicle: saline) was 266 % of control. For the same compound, the T/C (endpoint: mean survival time, dose: 0.6 mg/kg/injection, schedule: Q01DX Z (ip), vehicle: carboxymethylcellulose (CMC)) was 170 % of control and 197 % of control, the T/C (endpoint: mean survival time, dose: 0.6 mg/kg/injection, schedule: Q01DX Z (ip), vehicle: methylcellulose (MC)) was 166 % of control and 171 % of control and the T/C (endpoint: mean survival time, dose: 0.6 mg/kg/injection, schedule: Q01DX Z (sc), vehicle: methylcellulose (MC)) was 98 % of control and 101 % of control. For the same compound, the T/C (endpoint: mean survival time, dose: 0.88 mg/kg/injection, schedule: Q07DX Z (oral), vehicle: saline) was 124 % of control, the T/C (endpoint: mean survival time, dose: 0.9 mg/kg/injection, schedule: Q01DX Z (ip), vehicle: carboxymethylcellulose (CMC)) was 205 % of control and 257 % of control and the T/C (endpoint: mean survival time, dose: 0.9 mg/kg/injection, schedule: Q01DX Z (ip), vehicle: methylcellulose (MC)) was 181 % of control and 250 % of control. The T/C (endpoint: mean survival time, dose: 0.9 mg/kg/injection, schedule: Q01DX Z (oral), vehicle: carboxymethylcellulose (CMC)) was 117 % of control, the T/C (endpoint: mean survival time, dose: 0.9 mg/kg/injection, schedule: Q01DX Z (sc), vehicle: methylcellulose (MC)) was 98 % of control and 101 % of control and the T/C (endpoint: mean survival time, dose: 1.0 mg/kg/injection, schedule: Q01DX009 (ip), vehicle: saline) was 202 % of control and 222 % of control and 253 % of control. For the same compound, the T/C (endpoint: mean survival time, dose: 1.0 mg/kg/injection, schedule: Q01DX010 (iv), vehicle: saline) was 215 % of control, the T/C (endpoint: mean survival time, dose: 1.35 mg/kg/injection, schedule: Q01DX Z (ip), vehicle: carboxymethylcellulose (CMC)) was 176 % of control and 227 % of control and the T/C (endpoint: mean survival time, dose: 1.5 mg/kg/injection, schedule: Q03DX Z (oral), vehicle: saline) was 234 % of control. For the same compound, the T/C (endpoint: mean survival time, dose: 1.6 mg/kg/injection, schedule: Q01DX Z (oral), vehicle: methylcellulose (MC)) was 167 % of control, the T/C (endpoint: mean survival time, dose: 1.75 mg/kg/injection, schedule: Q07DX Z (oral), vehicle: saline) was 178 % of control and the T/C (endpoint: mean survival time, dose: 1.8 mg/kg/injection, schedule: Q01DX Z (oral), vehicle: carboxymethylcellulose (CMC)) was 102 % of control and 117 % of control. The T/C (endpoint: mean survival time, dose: 2.0 mg/kg/injection, schedule: Q01DX009 (ip), vehicle: saline) was 219 % of control and 317 % of control and 319 % of control, the T/C (endpoint: mean survival time, dose: 2.0 mg/kg/injection, schedule: Q01DX010 (iv), vehicle: saline) was 123 % of control and the T/C (endpoint: mean survival time, dose: 3.5 mg/kg/injection, schedule: Q01DX Z (oral), vehicle: carboxymethylcellulose (CMC)) was 114 % of control. For the same compound, the T/C (endpoint: mean survival time, dose: 3.5 mg/kg/injection, schedule: Q07DX Z (oral), vehicle: saline) was 266 % of control, the T/C (endpoint: mean survival time, dose: 3.6 mg/kg/injection, schedule: Q01DX001 (ip), vehicle: saline) was 239 % of control and 271 % of control and 91 % of control and the T/C (endpoint: mean survival time, dose: 4.0 mg/kg/injection, schedule: Q01DX009 (ip), vehicle: saline) was 111 % of control and 113 % of control. The T/C (endpoint: mean survival time, dose: 7.0 mg/kg/injection, schedule: Q01DX Z (oral), vehicle: carboxymethylcellulose (CMC)) was 194 % of control, the T/C (endpoint: mean survival time, dose: 7.2 mg/kg/injection, schedule: Q01DX001 (ip), vehicle: saline) was 265 % of control and 303 % of control and the T/C (endpoint: mean survival time, dose: 14.0 mg/kg/injection, schedule: Q01DX Z (oral), vehicle: carboxymethylcellulose (CMC)) was 111 % of control. The T/C (endpoint: mean survival time, dose: 25.0 micrograms/kg/injection, schedule: Q01DX Z (oral), vehicle: steriod suspending solution) was 101 % of control, the T/C (endpoint: mean survival time, dose: 50.0 micrograms/kg/injection, schedule: Q01DX Z (oral), vehicle: steriod suspending solution) was 104 % of control and the T/C (endpoint: mean survival time, dose: 100.0 micrograms/kg/injection, schedule: Q01DX Z (oral), vehicle: steriod suspending solution) was 115 % of control. For the same compound, the T/C (endpoint: mean survival time, dose: 110.0 micrograms/kg/injection, schedule: Q01DX Z (sc), vehicle: steriod suspending solution) was 102 % of control, the T/C (endpoint: mean survival time, dose: 200.0 micrograms/kg/injection, schedule: Q01DX Z (oral), vehicle: steriod suspending solution) was 165 % of control and the T/C (endpoint: mean survival time, dose: 220.0 micrograms/kg/injection, schedule: Q01DX Z (sc), vehicle: steriod suspending solution) was 105 % of control. For the same compound, the T/C (endpoint: mean survival time, dose: 450.0 micrograms/kg/injection, schedule: Q01DX Z (sc), vehicle: steriod suspending solution) was 124 % of control, the T/C (endpoint: median survival time, dose: 0.5 mg/kg/injection, schedule: Q01DX009 (ip), vehicle: saline) was 162 % of control and the T/C (endpoint: median survival time, dose: 1.0 mg/kg/injection, schedule: Q01DX009 (ip), vehicle: saline) was 206 % of control. The T/C (endpoint: median survival time, dose: 2.0 mg/kg/injection, schedule: Q01DX009 (ip), vehicle: saline) was 181 % of control and the T/C (endpoint: median survival time, dose: 4.0 mg/kg/injection, schedule: Q01DX009 (ip), vehicle: saline) was 112 % of control.
`Cc1ccc(OC/C=C/CSc2ccc(Br)cc2)cc1` was tested, and the T/C (endpoint: mean survival time, dose: 50.0 mg/kg/injection, schedule: Q01DX009 (ip), vehicle: Klucel (hydroxypropylcellulose) (HPC)) was 103 % of control, the T/C (endpoint: mean survival time, dose: 75.0 mg/kg/injection, schedule: Q01DX001 (ip), vehicle: Klucel (hydroxypropylcellulose) (HPC)) was 106 % of control and the T/C [1] was 100 % of control. The T/C (endpoint: mean survival time, dose: 150.0 mg/kg/injection, schedule: Q01DX001 (ip), vehicle: Klucel (hydroxypropylcellulose) (HPC)) was 104 % of control, the T/C [2] was 102 % of control and the T/C (endpoint: mean survival time, dose: 300.0 mg/kg/injection, schedule: Q01DX001 (ip), vehicle: Klucel (hydroxypropylcellulose) (HPC)) was 98 % of control.
For `CC(=O)c1ccc(P(=O)(O)O)cc1`, the T/C (endpoint: mean survival time, dose: 75.0 mg/kg/injection, schedule: Q01DX001 (ip), vehicle: saline) was 96 % of control, the T/C (endpoint: mean survival time, dose: 150.0 mg/kg/injection, schedule: Q01DX001 (ip), vehicle: saline) was 102 % of control and the T/C (endpoint: mean survival time, dose: 300.0 mg/kg/injection, schedule: Q01DX001 (ip), vehicle: saline) was 98 % of control.
For `COC1N(c2ccccc2)CCN1c1ccccc1`, the T/C (endpoint: mean survival time, dose: 100.0 mg/kg/injection, schedule: Q04DX002 (ip), vehicle: gum acacia) was 109 % of control, the T/C (endpoint: mean survival time, dose: 200.0 mg/kg/injection, schedule: Q04DX002 (ip), vehicle: gum acacia) was 106 % of control and the T/C (endpoint: mean survival time, dose: 400.0 mg/kg/injection, schedule: Q04DX002 (ip), vehicle: gum acacia) was 106 % of control.
`CCOC(=O)C(OCc1ccccc1)(C(=O)N1CCCCCC1=O)C(C)C` (stereo unspecified) was tested, and the T/C (endpoint: mean survival time, dose: 100.0 mg/kg/injection, schedule: Q01DX009 (ip), vehicle: saline with Tween-80) was 90 % of control, the T/C (endpoint: mean survival time, dose: 200.0 mg/kg/injection, schedule: Q01DX009 (ip), vehicle: saline with Tween-80) was 90 % of control and the T/C (endpoint: mean survival time, dose: 400.0 mg/kg/injection, schedule: Q01DX009 (ip), vehicle: saline with Tween-80) was 100 % of control.
With `O=C1c2sccc2-c2cccc3cccc1c23` the T/C (endpoint: mean survival time, dose: 50.0 mg/kg/injection, schedule: Q04DX003 (ip), vehicle: Klucel (hydroxypropylcellulose) (HPC)) was 98 % of control, the T/C [1] was 98 % of control and the T/C (endpoint: mean survival time, dose: 100.0 mg/kg/injection, schedule: Q04DX003 (ip), vehicle: Klucel (hydroxypropylcellulose) (HPC)) was 96 % of control. The T/C [2] was 106 % of control, the T/C (endpoint: mean survival time, dose: 200.0 mg/kg/injection, schedule: Q04DX003 (ip), vehicle: Klucel (hydroxypropylcellulose) (HPC)) was 102 % of control and the T/C (endpoint: mean survival time, dose: 400.0 mg/kg/injection, schedule: Q01DX009 (ip), vehicle: Klucel (hydroxypropylcellulose) (HPC)) was 103 % of control.
